Test results taken from patent publication US12729377B2, “RNAi agents and compositions for inhibiting expression of angiopoietin-like 3 (ANGPTL3), and methods of use” (Arrowhead Pharmaceuticals, Inc., priority 2017, dated 2026).
In the oligonucleotide strings, read from the 5' end, every base follows the letter of its sugar. An asterisk marks phosphorothioate; unmarked linkages are phosphodiester. Other units and linkages are bracketed, terminal groups are in braces. A string of capitals states the bases alone. {NAG37} = tridentate N-acetyl-galactosamine targeting ligand, structure (NAG37)s; [invAb] = inverted abasic unit; m = 2'-O-methyl; f = 2'-fluoro

Legend:
ANGPTL3 protein [1] = assay: Example 6: serum ANGPTL3 protein by ELISA in mice; format: in vivo, C57bl/6 mice; conditions: for Avg ANGPTL3, normalized to pre-treatment and control: 0.5 mg/kg single SC injection on day 1, serum, n=3
Experimental: To assess the in vivo activity of additional ANGPTL3 RNAi agents that are designed to target position 304 on the ANGPTL3 gene, six- to eight-week-old female C57bl/6 mice were used. Pre-dose serum samples were taken at day −1 after a four hour fast. At day 1, each mouse was given a single subcutaneous administration of 200 μl containing 0.5 mg/kg (mpk) of an ANGPTL3 RNAi agent in D5W (dextrose in 5% water), or control (D5W) with no RNAi agent, according to the dosing groups recited in Table 25.
Each of the RNAi agents included a modified sequence and an N-acetyl-galactosamine-containing targeting ligand conjugated to the 5′ terminal end of the sense strand. (See Tables 3, 4, and 5 for modified sequences and targeting ligand structures). The injections were performed between the skin and muscle (i.e. subcutaneous injections) into the loose skin over the neck and shoulder area. Three (3) mice in each group were tested (n=3). Serum was collected on days 8, 15, 22, 30, and on day 43 for certain groups (i.e., Groups 1, 2, 5, and 10 only). Mice were fasted for four hours prior to each collection. ANGPTL3 protein levels in serum were measured by ELISA assay (R&D Systems), according to the manufacturer's recommendations. Triglycerides, total cholesterol, high-density lipoprotein (HDL), and low-density lipoprotein (LDL) in serum were measured on a Cobas® Integra 400 (Roche Diagnostics), according to the manufacturer's recommendations.
The ANGPTL3 protein levels, triglyceride levels, total cholesterol levels, HDL levels, and LDL levels for each animal were normalized. For normalization, the level of ANGPTL3 protein, triglyceride, HDL, and total cholesterol, respectively, for each animal at a time point, was divided by the pre-treatment level of expression in that animal (in this case at day −1) to determine the ratio of expression “normalized to pre-treatment.” Expression at a specific time point was then normalized to the D5W control group by dividing the “normalized to pre-treatment” ratio for an individual animal by the mean “normalized to pretreatment” ratio of all mice in the D5W control group.

ANGPTL3 protein [2] = assay: Example 14: RNAi agent and statin, serum ANGPTL3 protein by ELISA in LDLR knockout mice; format: in vivo, LDLR KO mice
Text: To evaluate the effect of co-administration of RNAi agents and statins in a disease model, LDLR KO mice were commercially obtained (The Jackson Laboratory). For three weeks prior to the onset of the study, forty-one (41) male 7 to 8 week old LDLR KO mice were placed on a high fat (“western”) diet (Teklad Custom Diets TD.88137), and remained on that diet throughout the duration of the study. Pre-dose serum samples were taken on study Day 1 after a four hour fast. The dosing regimen for the study is recited in the following Table 72:
• Mice were treated at 40 mg/kg for the first 11 days, then switched to 20 mg/kg thereafter.
The vehicle used for the oral gavage in the study was a 1:1 mixture of Ora-Plus®: Ora-Sweet® solution, which were acquired commercially. For the preparation of the atorvastatin oral gavage administrations, the respective desired dose of atorvastatin was first dissolved in sterile water (0.3 mL water per 1 mL of desired formulation) and vortexed until smooth, followed by the addition of a mixture of 1:1 Ora-Plus®: Ora-Sweet® solution (0.7 mL vehicle per 1 mL of desired formulation) and vortexed. On day 1 and for each day thereafter an oral gavage dose was administered for each of the Groups except for Group 2. On Day 23, Groups 1, 2, 3, and 4 received a single subcutaneous administration of 2.5 mg/kg dose ([…] solution) of an ANGPTL3 RNAi agent in D5W (dextrose in 5% water), or vehicle control (D5W) with no RNAi agent.
The RNAi agent tested (AD05488) included a modified sequence and an N-acetyl-galactosamine-containing targeting ligand conjugated to the 5′ terminal end of the sense strand. (See Tables 3, 4, and 5 for modified sequences and targeting ligand structures). The injections were performed between the skin and muscle (i.e. subcutaneous injections) into the loose skin over the neck and shoulder area. Serum was collected on days 8, 15, 22 (pre-RNAi agent injection), 29, 36, 43, and 50. LDLR KO mice were fasted for four hours prior to each collection.
ANGPTL3 protein levels in serum were measured by ELISA assay (R&D Systems), according to the manufacturer's recommendations. Among other biomarkers, triglycerides, total cholesterol, and low-density lipoprotein (LDL) in serum were measured on a Cobas® Integra 400 (Roche Diagnostics), according to the manufacturer's recommendations.
The ANGPTL3 protein levels, triglyceride levels, total cholesterol levels, HDL levels, and LDL levels for each animal were normalized. For normalization, respective levels of ANGPTL3 protein, TG, total cholesterol, or LDL for each animal at a time point was divided by the pre-treatment level of expression in that animal (in this case pre-dose levels on Day 1) to determine the ratio of expression “normalized to pre-treatment.” Data from the study set forth in this Example are shown in the following Tables 73-76: […]

AD05488: RNAi agent duplex: antisense AM07235-AS, sense AM07234-SS (antisense mU*fA*mC*fUmGfAmUfCmAfAmAfUmAfUmGfUmUfGmAfG*mC; sense {NAG37}*[invAb]*mGmCmUmCmAmAmCmAfUfAfUmUmUmGmAmUmCmAmGmUmA*[invAb])
Avg ANGPTL3, normalized to pre-treatment and control (ANGPTL3 protein [1]; Day 8): 0.221
Avg ANGPTL3, normalized to pre-treatment and control (ANGPTL3 protein [1]; Day 15): 0.272
Avg ANGPTL3, normalized to pre-treatment and control (ANGPTL3 protein [1]; Day 22): 0.254
Avg ANGPTL3, normalized to pre-treatment and control (ANGPTL3 protein [1]; Day 30): 0.381
Avg ANGPTL3, normalized to pre-treatment and control (ANGPTL3 protein [1]; Day 43): 0.475
reduction in ANGPTL3 protein levels (ANGPTL3 protein [1]; through at least day 22, single 0.5 mg/kg subcutaneous, C57bl/6 mice): substantial reduction
Avg ANGPTL3 normalized to pre-treatment (ANGPTL3 protein [2]; Group 2: no gavage, 2.5 mg/kg AD05488 SC on day 23, Day 8 (pre-RNAi agent injection)): 1.419
Avg ANGPTL3 normalized to pre-treatment (ANGPTL3 protein [2]; Group 2: no gavage, 2.5 mg/kg AD05488 SC on day 23, Day 15 (pre-RNAi agent injection)): 1.584
Avg ANGPTL3 normalized to pre-treatment (ANGPTL3 protein [2]; Group 2: no gavage, 2.5 mg/kg AD05488 SC on day 23, Day 22 (pre-RNAi agent injection)): 1.658
Avg ANGPTL3 normalized to pre-treatment (ANGPTL3 protein [2]; Group 2: no gavage, 2.5 mg/kg AD05488 SC on day 23, Day 29): 0.023
Avg ANGPTL3 normalized to pre-treatment (ANGPTL3 protein [2]; Group 2: no gavage, 2.5 mg/kg AD05488 SC on day 23, Day 36): 0.012
Avg ANGPTL3 normalized to pre-treatment (ANGPTL3 protein [2]; Group 2: no gavage, 2.5 mg/kg AD05488 SC on day 23, Day 43): 0.020
Avg ANGPTL3 normalized to pre-treatment (ANGPTL3 protein [2]; Group 2: no gavage, 2.5 mg/kg AD05488 SC on day 23, Day 50): 0.026
Avg ANGPTL3 normalized to pre-treatment (ANGPTL3 protein [2]; Group 3: 10 mg/kg daily oral gavage atorvastatin, 2.5 mg/kg AD05488 on day 23, Day 8 (pre-RNAi agent injection)): 1.597
Avg ANGPTL3 normalized to pre-treatment (ANGPTL3 protein [2]; Group 3: 10 mg/kg daily oral gavage atorvastatin, 2.5 mg/kg AD05488 on day 23, Day 15 (pre-RNAi agent injection)): 1.765
Avg ANGPTL3 normalized to pre-treatment (ANGPTL3 protein [2]; Group 3: 10 mg/kg daily oral gavage atorvastatin, 2.5 mg/kg AD05488 on day 23, Day 22 (pre-RNAi agent injection)): 1.681
Avg ANGPTL3 normalized to pre-treatment (ANGPTL3 protein [2]; Group 3: 10 mg/kg daily oral gavage atorvastatin, 2.5 mg/kg AD05488 on day 23, Day 29): 0.015
Avg ANGPTL3 normalized to pre-treatment (ANGPTL3 protein [2]; Group 3: 10 mg/kg daily oral gavage atorvastatin, 2.5 mg/kg AD05488 on day 23, Day 36): 0.005
Avg ANGPTL3 normalized to pre-treatment (ANGPTL3 protein [2]; Group 3: 10 mg/kg daily oral gavage atorvastatin, 2.5 mg/kg AD05488 on day 23, Day 43): 0.007
Avg ANGPTL3 normalized to pre-treatment (ANGPTL3 protein [2]; Group 3: 10 mg/kg daily oral gavage atorvastatin, 2.5 mg/kg AD05488 on day 23, Day 50): 0.010
Avg ANGPTL3 normalized to pre-treatment (ANGPTL3 protein [2]; Group 4: 20 mg/kg* daily oral gavage atorvastatin (40 mg/kg first 11 days), 2.5 mg/kg AD05488 on day 23, Day 8 (pre-RNAi agent injection)): 1.683
Avg ANGPTL3 normalized to pre-treatment (ANGPTL3 protein [2]; Group 4: 20 mg/kg* daily oral gavage atorvastatin (40 mg/kg first 11 days), 2.5 mg/kg AD05488 on day 23, Day 15 (pre-RNAi agent injection)): 1.999
Avg ANGPTL3 normalized to pre-treatment (ANGPTL3 protein [2]; Group 4: 20 mg/kg* daily oral gavage atorvastatin (40 mg/kg first 11 days), 2.5 mg/kg AD05488 on day 23, Day 22 (pre-RNAi agent injection)): 1.675
Avg ANGPTL3 normalized to pre-treatment (ANGPTL3 protein [2]; Group 4: 20 mg/kg* daily oral gavage atorvastatin (40 mg/kg first 11 days), 2.5 mg/kg AD05488 on day 23, Day 29): 0.022
Avg ANGPTL3 normalized to pre-treatment (ANGPTL3 protein [2]; Group 4: 20 mg/kg* daily oral gavage atorvastatin (40 mg/kg first 11 days), 2.5 mg/kg AD05488 on day 23, Day 36): 0.004
Avg ANGPTL3 normalized to pre-treatment (ANGPTL3 protein [2]; Group 4: 20 mg/kg* daily oral gavage atorvastatin (40 mg/kg first 11 days), 2.5 mg/kg AD05488 on day 23, Day 43): 0.005
Avg ANGPTL3 normalized to pre-treatment (ANGPTL3 protein [2]; Group 4: 20 mg/kg* daily oral gavage atorvastatin (40 mg/kg first 11 days), 2.5 mg/kg AD05488 on day 23, Day 50): 0.010
reduction in ANGPTL3 protein levels (ANGPTL3 protein [2]; single 2.5 mg/kg subcutaneous on Day 23, LDLR KO mice on high fat diet): clear reduction
